# Assay results reported in ChEMBL document CHEMBL1201862, “PubChem BioAssay data set” (2004).
#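 Results reflect a 48-hour exposure of cells in 96-well plates to compound at five concentrations. GI50 is the concentration that inhibits growth by half.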 The source made the active and inactive calls. Cut-off read from the data, not from the text of the source: active = GI50 up to about 1.1 µM and inactive = higher. Starred links: 1 amine or outer side, 2 acyl side, 3 side chain; linkers in the order of their positions; H or OH if unused. Positions of bridges follow the written chain, without caps; N, C: chain ends. Non-standard residues stand in square brackets, D forms with d. Residues, ends and D or L forms follow the SMILES beside them. Chains are numbered I, II in the order given. Actinocin(1to9) = Cc1c2oc3c(C)ccc(C(=O)[*:2])c3nc-2c(C(=O)[*:1])c(N)c1=O; aThr = C[C@H](O)[C@H](N)C(=O)O; NMeV = CN[C@H](C(=O)O)C(C)C; Sar = CNCC(=O)O
# Legend:
# Assay in all cases: NCI anticancer screen, dose series, 48 h
# DLD-1 = test system: DLD-1
# HOP-18 = test system: HOP-18
# KM-20L2 = test system: KM-20L2
# LXFL 529 = test system: LXFL 529
# M19-MEL = test system: M19-MEL
# RXF 631 = test system: RXF 631
# XF498 = test system: XF498
# DMS-273 = test system: DMS-273
# SNB-78 = test system: SNB-78
SMILES,GI50 (DLD-1),GI50 (HOP-18),GI50 (KM-20L2),GI50 (LXFL 529),GI50 (M19-MEL),GI50 (RXF 631),GI50 (XF498),GI50 (DMS-273),GI50 (SNB-78)
CC1=CC(=O)N2[C@H](OC[C@@H]2C(C)C)O1,> 100 µM (inactive),> 100 µM (inactive),> 100 µM (inactive),> 100 µM (inactive),> 100 µM (inactive),> 100 µM (inactive),> 100 µM (inactive),,
Nc1cc(-c2ccccc2)nn1-c1nsc2ccccc12,,0.573 µM (active),> 100 µM (inactive),> 100 µM (inactive),> 100 µM (inactive),,,80.7 µM (inactive),68.1 µM (inactive)
Cc1ccc(N2C(=O)/C(=C/c3ccc(N(CCC#N)CCC#N)cc3)N=C2COc2ccc(Cl)cc2Cl)cc1,> 100 µM (inactive),33.8 µM (inactive),> 100 µM (inactive),> 100 µM (inactive),,> 100 µM (inactive),> 100 µM (inactive),,> 100 µM (inactive)
Oc1cc(O)cc(/C=C/c2ccc(O)c(O)c2)c1 [PICEATANNOL],8.57 µM (inactive),45.5 µM (inactive),23.4 µM (inactive),,12.2 µM (inactive),,,12.3 µM (inactive),17.9 µM (inactive)
COc1ccc(Oc2ccccc2N)cc1,30 µM (inactive),> 100 µM (inactive),27.6 µM (inactive),10.4 µM (inactive),50.2 µM (inactive),> 100 µM (inactive),,29.5 µM (inactive),> 100 µM (inactive)
c1ccc(OCc2nnc3n2N=C(c2ccccc2)CS3)cc1,> 100 µM (inactive),,,> 100 µM (inactive),> 100 µM (inactive),,> 100 µM (inactive),> 100 µM (inactive),> 100 µM (inactive)
"Cc1c2oc3c(C)ccc(C(=O)N[C@@H]4C(=O)N[C@H](C(C)C)C(=O)N5CCC[C@H]5C(=O)N(C)CC(=O)N(C)[C@@H](C(C)C)C(=O)O[C@H]4C)c3nc-2c(C(=O)N[C@@H]2C(=O)N[C@H](C(C)C)C(=O)N3CCC[C@H]3C(=O)N(C)CC(=O)N(C)[C@@H](C(C)C)C(=O)O[C@H]2C)c(N)c1=O (I: [aThr][dV]P[Sar][NMeV] / II: [aThr][dV]P[Sar][NMeV]; ester I:1-I:C, II:1-II:C; linker I:N-II:N via Actinocin(1to9))",0.00384 µM (active),0.00611 µM (active),0.00292 µM (active),,0.00155 µM (active),,0.000897 µM (active),0.00031 µM (active),0.0027 µM (active)
O=C1OC(c2ccccc2)=N/C1=C\c1c(O)cc(O)cc1O,,> 100 µM (inactive),> 100 µM (inactive),41 µM (inactive),83.6 µM (inactive),,,94.2 µM (inactive),> 100 µM (inactive)
Cc1c(C2Cc3ccccc3N2C(=O)/C=C\C(=O)O)c2ccccc2n1C (centres undefined),35.9 µM (inactive),,25.1 µM (inactive),17.3 µM (inactive),19.7 µM (inactive),> 100 µM (inactive),17.3 µM (inactive),34.8 µM (inactive),35.5 µM (inactive)
COc1ccc(-c2nc(N)n(C)c2SSc2c(-c3ccc(OC)cc3)nc(N)n2C)cc1,4.3 µM (inactive),5.57 µM (inactive),12.9 µM (inactive),1.67 µM (inactive),2.29 µM (inactive),,2.13 µM (inactive),3.88 µM (inactive),
N#CC1(C#N)C(c2ccc(C3C(C#N)(C#N)C3(C#N)C#N)cc2)C1(C#N)C#N,> 100 µM (inactive),> 100 µM (inactive),> 100 µM (inactive),> 100 µM (inactive),> 100 µM (inactive),,,> 100 µM (inactive),
O=C(Nc1cc(Cl)ccc1Cl)C(=O)C(c1cnc2ccccc2n1)[N+](=O)[O-] (centres undefined),> 100 µM (inactive),> 100 µM (inactive),> 100 µM (inactive),> 100 µM (inactive),> 100 µM (inactive),> 100 µM (inactive),> 100 µM (inactive),,> 100 µM (inactive)
Oc1cc(Cl)ncn1,> 100 µM (inactive),> 100 µM (inactive),> 100 µM (inactive),> 100 µM (inactive),> 100 µM (inactive),> 100 µM (inactive),,> 100 µM (inactive),> 100 µM (inactive)
CC1(C)Cc2c(C#N)c(N)c3c(c2CO1)C(=O)OC3=O,,> 100 µM (inactive),> 100 µM (inactive),> 100 µM (inactive),> 100 µM (inactive),,> 100 µM (inactive),> 100 µM (inactive),
CC(C)(c1ccc(OC#N)cc1)c1ccc(OC#N)cc1,> 56.8 µM (inactive),> 100 µM (inactive),> 74.6 µM (inactive),> 100 µM (inactive),> 82.6 µM (inactive),> 100 µM (inactive),,,> 100 µM (inactive)
O=[N+]([O-])c1ccc2nc(/C(=N\Nc3ccccc3)C(O)c3ccc4c(c3)OCO4)c(O)nc2c1 (centres undefined),> 100 µM (inactive),,67 µM (inactive),50.7 µM (inactive),> 100 µM (inactive),> 100 µM (inactive),,37.7 µM (inactive),> 100 µM (inactive)
CNC(=O)CN1CC(=O)N(C)C(=O)C1,> 100 µM (inactive),,> 100 µM (inactive),> 100 µM (inactive),> 100 µM (inactive),,> 100 µM (inactive),> 100 µM (inactive),> 100 µM (inactive)
c1ccc(C2=NOC3(c4ccccc4)SC4CCCCC4CN23)cc1 (centres undefined),40.5 µM (inactive),26.9 µM (inactive),39.5 µM (inactive),13.2 µM (inactive),30.5 µM (inactive),,52.4 µM (inactive),32.6 µM (inactive),34 µM (inactive)
O=C1CCC(=O)C(C(=O)CCC(=O)Nc2ccc(Cl)cc2)C1 (centres undefined),> 100 µM (inactive),> 100 µM (inactive),> 100 µM (inactive),> 100 µM (inactive),,> 100 µM (inactive),> 100 µM (inactive),> 100 µM (inactive),> 100 µM (inactive)
O=C1C=C2SC3C[C@@]24CC1[N+]1=c2c4c(c(O)c4c2=C(C=N4)CC1)N3,2.07 µM (inactive),6.49 µM (inactive),1.92 µM (inactive),,1.9 µM (inactive),,1.91 µM (inactive),2.12 µM (inactive),2.61 µM (inactive)
CC(C)CCS(=O)(=O)OCCCCOS(=O)(=O)CCC(C)C,> 100 µM (inactive),,> 100 µM (inactive),> 100 µM (inactive),> 100 µM (inactive),,,> 100 µM (inactive),> 100 µM (inactive)
CCOC(=O)c1cnc2sc3ccc4ccccc4c3n2c1=O,> 100 µM (inactive),> 100 µM (inactive),72.1 µM (inactive),55.2 µM (inactive),> 100 µM (inactive),64.6 µM (inactive),,95.5 µM (inactive),> 100 µM (inactive)
Cc1c(C(=O)CC(=O)C(=O)NC2C3CC4CC(C3)CC2C4)[n+]([O-])c2ccccc2[n+]1[O-] (centres undefined),,24.4 µM (inactive),> 100 µM (inactive),> 100 µM (inactive),90.2 µM (inactive),> 100 µM (inactive),93.5 µM (inactive),> 100 µM (inactive),> 100 µM (inactive)
COc1cc2c(cc1OC)C(C(c1ccccc1)c1ccccc1)N(C)CC2 (centres undefined),> 78.9 µM (inactive),> 100 µM (inactive),32.6 µM (inactive),,> 91.6 µM (inactive),,53 µM (inactive),77.3 µM (inactive),> 100 µM (inactive)
CCOC(=O)c1nc2ccc([N+](=O)[O-])cc2c2c1CCO2,> 100 µM (inactive),71 µM (inactive),> 100 µM (inactive),> 100 µM (inactive),> 100 µM (inactive),> 100 µM (inactive),> 100 µM (inactive),> 100 µM (inactive),> 100 µM (inactive)
Clc1ccc(-c2c(C3=NCCCN3)nnn2-c2ccc(Cl)cc2)cc1,> 68.9 µM (inactive),> 100 µM (inactive),29.5 µM (inactive),29 µM (inactive),,,22.6 µM (inactive),60.5 µM (inactive),43.6 µM (inactive)
NNC(=O)/C(NC(=O)c1ccccc1)=C(\N)c1ccc(Cl)cc1,> 100 µM (inactive),> 100 µM (inactive),> 100 µM (inactive),> 100 µM (inactive),> 100 µM (inactive),,,> 100 µM (inactive),> 100 µM (inactive)
O=C(O)CCC(NC(=O)c1ccc(Nc2nc3cc(C(F)(F)F)ccc3nc2-c2ccccc2)cc1)C(=O)O (centres undefined),> 76 µM (inactive),> 100 µM (inactive),24.3 µM (inactive),,> 100 µM (inactive),,> 78.2 µM (inactive),24.6 µM (inactive),> 95.9 µM (inactive)
